# Test results taken from paper PMC7377239, “Cardiovascular Effects of Polychlorinated Biphenyls and Their Major Metabolites” (Environmental Health Perspectives, 2020).
# Where two headings read alike, the source gives them in different places.
# Experiments:
# HUVECs = test: High-content imaging cytotoxicity in HUVECs, 24 h; assay type: cell-based, human; settings: Homo sapiens, HUVEC, 24 h, HUVECs; for viability at 0.01 µM / activity at 0.01 µM / viability at 0.1 µM / activity at 0.1 µM / viability at 1 µM / activity at 1 µM / viability at 10 µM / activity at 10 µM / viability at 100 µM / activity at 100 µM: 0.00 µM = 100.00; for viability at 0.1 µM / activity at 0.1 µM: 0.10 µM; for minimal effective concentration: top concentration 100.00 µM
# Method in brief: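 Point-of-departure values come from four-parameter logistic fits of vehicle-normalized (0.5% DMSO) imaging readouts, cutoff one SD of vehicle means, 100μM where no concentration–response. Cells: HUVEC monolayers, passages 1–5, treated 24 h at 37°C, 5% CO2, then Hoechst 33342/MitoTracker Orange/calcein AM stained, imaged at 10×.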
# [1] = test system: iCell cardiomyocytes (human iPSC-derived cardiomyocytes); test: High-content imaging of cytotoxicity and mitochondrial integrity in iPSC-CMs; assay type: cell-based; settings: Homo sapiens; for viability at 0.01 µM / activity at 0.01 µM / viability at 0.1 µM / activity at 0.1 µM / viability at 1 µM / activity at 1 µM / viability at 10 µM / activity at 10 µM / viability at 100 µM / activity at 100 µM: Cardiomyocyte, 0.00 µM = 100.00; for viability at 0.1 µM / activity at 0.1 µM: 0.10 µM; for minimal effective concentration: iPSC-CM
# Method in brief: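 Cardiomyocytes grown on gelatinized 384-well plates received fresh medium on the experiment day and were then exposed to chemicals at 0.01–100μM. Nuclei and mitochondria were labeled with Hoechst 33342 and MitoTracker™ Orange, then fixed, and imaged on an ImageXpress® Micro Confocal system. Four-parameter logistic concentration–response fits in R, with a one-standard-deviation vehicle cutoff, gave point-of-departure values.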
# [2] = 24 hr, read-out: huvec.cyto.24hr
# [3] = 24 hr, read-out: huvec.mito.24hr
# [4] = 24 hr, read-out: huvec.mitoint.24hr
# [5] = 24 hr, read-out: huvec.nma.24hr
# [6] = 24 hrs, read-out: huvec.tc.24hrs
structure (smiles),measurement,setting,value
COc1ccc(-c2ccc(Cl)cc2)cc1 [4'-OMe PCB3],viability at 0.01 µM,HUVECs; [2],87.9%
same,activity at 0.01 µM,HUVECs; [3],86.7%
same,activity at 0.01 µM,HUVECs; [4],91.6%
same,activity at 0.01 µM,HUVECs; [5],101%
same,viability at 0.1 µM,HUVECs; [2],99.3%
same,activity at 0.1 µM,HUVECs; [3],98.5%
same,activity at 0.1 µM,HUVECs; [4],97.3%
same,activity at 0.1 µM,HUVECs; [5],98.2%
same,viability at 1 µM,HUVECs; [2],94.1%
same,activity at 1 µM,HUVECs; [3],93.8%
same,activity at 1 µM,HUVECs; [4],91%
same,activity at 1 µM,HUVECs; [5],96.4%
same,viability at 10 µM,HUVECs; [2],94.1%
same,activity at 10 µM,HUVECs; [3],92.9%
same,activity at 10 µM,HUVECs; [4],94%
same,activity at 10 µM,HUVECs; [5],92.3%
same,viability at 100 µM,HUVECs; [2],70.2%
same,activity at 100 µM,HUVECs; [3],70.1%
same,activity at 100 µM,HUVECs; [5],73.7%
same,minimal effective concentration,"HUVECs; 24 hr, read-out: huvec.cyto.24hr POD",8.6 µM
same,minimal effective concentration,"HUVECs; 24 hr, read-out: huvec.mito.24hr POD",5.97 µM
same,minimal effective concentration,"HUVECs; 24 hr, read-out: huvec.mitoint.24hr POD",32 µM
same,minimal effective concentration,"HUVECs; 24 hr, read-out: huvec.nma.24hr POD",1.41 µM
same,viability at 0.01 µM,HUVECs; [6],87.9%
same,viability at 0.1 µM,HUVECs; [6],99.3%
same,viability at 1 µM,HUVECs; [6],94.1%
same,viability at 10 µM,HUVECs; [6],94.1%
same,viability at 100 µM,HUVECs; [6],70.2%
same,minimal effective concentration,"HUVECs; 24 hrs, read-out: huvec.tc.24hrs POD",8.6 µM
same,viability at 0.01 µM,"[1]; 1.5 h, read-out: cm.cam.90min",95%
same,activity at 0.01 µM,"[1]; 1.5 h, read-out: cm.mii.90min",107%
same,activity at 0.01 µM,"[1]; 1.5 h, read-out: cm.mito.90min",94.4%
same,viability at 0.01 µM,"[1]; 1.5 h, read-out: cm.tc.90min",94.9%
same,viability at 0.1 µM,"[1]; 1.5 h, read-out: cm.cam.90min",96%
same,activity at 0.1 µM,"[1]; 1.5 h, read-out: cm.mii.90min",114%
same,activity at 0.1 µM,"[1]; 1.5 h, read-out: cm.mito.90min",96%
same,viability at 0.1 µM,"[1]; 1.5 h, read-out: cm.tc.90min",96.1%
same,viability at 1 µM,"[1]; 1.5 h, read-out: cm.cam.90min",103%
same,activity at 1 µM,"[1]; 1.5 h, read-out: cm.mii.90min",103%
same,activity at 1 µM,"[1]; 1.5 h, read-out: cm.mito.90min",102%
same,viability at 1 µM,"[1]; 1.5 h, read-out: cm.tc.90min",103%
same,viability at 10 µM,"[1]; 1.5 h, read-out: cm.cam.90min",102%
same,activity at 10 µM,"[1]; 1.5 h, read-out: cm.mii.90min",109%
same,activity at 10 µM,"[1]; 1.5 h, read-out: cm.mito.90min",101%
same,viability at 10 µM,"[1]; 1.5 h, read-out: cm.tc.90min",101%
same,viability at 100 µM,"[1]; 1.5 h, read-out: cm.cam.90min",104%
same,activity at 100 µM,"[1]; 1.5 h, read-out: cm.mii.90min",99.8%
same,activity at 100 µM,"[1]; 1.5 h, read-out: cm.mito.90min",104%
same,viability at 100 µM,"[1]; 1.5 h, read-out: cm.tc.90min",105%
same,viability at 0.01 µM,"[1]; 24 h, read-out: cm.cam.24hrs",104%
same,activity at 0.01 µM,"[1]; 24 h, read-out: cm.mii.24hrs",87%
same,activity at 0.01 µM,"[1]; 24 h, read-out: cm.mito.24hrs",105%
same,viability at 0.01 µM,"[1]; 24 h, read-out: cm.tc.24hrs",105%
same,viability at 0.1 µM,"[1]; 24 h, read-out: cm.cam.24hrs",102%
same,activity at 0.1 µM,"[1]; 24 h, read-out: cm.mii.24hrs",85.8%
same,activity at 0.1 µM,"[1]; 24 h, read-out: cm.mito.24hrs",104%
same,viability at 0.1 µM,"[1]; 24 h, read-out: cm.tc.24hrs",102%
same,viability at 1 µM,"[1]; 24 h, read-out: cm.cam.24hrs",104%
same,activity at 1 µM,"[1]; 24 h, read-out: cm.mii.24hrs",98%
same,activity at 1 µM,"[1]; 24 h, read-out: cm.mito.24hrs",104%
same,viability at 1 µM,"[1]; 24 h, read-out: cm.tc.24hrs",104%
same,viability at 10 µM,"[1]; 24 h, read-out: cm.cam.24hrs",104%
same,activity at 10 µM,"[1]; 24 h, read-out: cm.mii.24hrs",83.8%
same,activity at 10 µM,"[1]; 24 h, read-out: cm.mito.24hrs",104%
same,viability at 10 µM,"[1]; 24 h, read-out: cm.tc.24hrs",104%
same,viability at 100 µM,"[1]; 24 h, read-out: cm.cam.24hrs",92.3%
same,activity at 100 µM,"[1]; 24 h, read-out: cm.mii.24hrs",122%
same,activity at 100 µM,"[1]; 24 h, read-out: cm.mito.24hrs",94.2%
same,viability at 100 µM,"[1]; 24 h, read-out: cm.tc.24hrs",92.4%
same,minimal effective concentration,"[1]; 1.5 h, read-out: cm.cam.90min POD",100 µM
same,minimal effective concentration,"[1]; 1.5 h, read-out: cm.mii.90min POD",100 µM
same,minimal effective concentration,"[1]; 1.5 h, read-out: cm.mito.90min POD",100 µM
same,minimal effective concentration,"[1]; 1.5 h, read-out: cm.tc.90min POD",100 µM
same,minimal effective concentration,"[1]; 24 h, read-out: cm.cam.24hrs POD",82.9 µM
same,minimal effective concentration,"[1]; 24 h, read-out: cm.mii.24hrs POD",100 µM
same,minimal effective concentration,"[1]; 24 h, read-out: cm.mito.24hrs POD",100 µM
same,minimal effective concentration,"[1]; 24 h, read-out: cm.tc.24hrs POD",100 µM
